# “And” between values parts separate entries of the source, which are not always exact repeats. Equal values may be shown once.
# Experiments:
# OAT1 = target: T1, OAT1 (Homo sapiens, UniProt Q4U2R8); assay: in vitro
# T1 sequence (Q4U2R8 1-563): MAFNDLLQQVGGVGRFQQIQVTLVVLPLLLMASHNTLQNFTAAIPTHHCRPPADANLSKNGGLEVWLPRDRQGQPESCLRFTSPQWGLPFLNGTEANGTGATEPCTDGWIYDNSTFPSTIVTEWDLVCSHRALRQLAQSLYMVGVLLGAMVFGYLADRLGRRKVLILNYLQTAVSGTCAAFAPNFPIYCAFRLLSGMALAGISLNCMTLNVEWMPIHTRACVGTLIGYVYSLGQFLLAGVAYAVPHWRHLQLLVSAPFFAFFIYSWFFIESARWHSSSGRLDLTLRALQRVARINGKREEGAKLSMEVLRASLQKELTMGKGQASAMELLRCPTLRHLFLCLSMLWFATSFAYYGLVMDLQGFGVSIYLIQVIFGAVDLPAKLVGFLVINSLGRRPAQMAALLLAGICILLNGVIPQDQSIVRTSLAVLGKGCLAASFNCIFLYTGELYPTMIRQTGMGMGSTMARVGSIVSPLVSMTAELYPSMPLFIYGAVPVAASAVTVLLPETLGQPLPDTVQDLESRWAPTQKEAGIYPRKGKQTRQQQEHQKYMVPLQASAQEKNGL
# P-gp and BCRP = P-gp and BCRP substrate assessment in C2BBe1 monolayers
# Description: The P-gp and BCRP substrate assessment was conducted in C2BBe1 cell monolayers. […] LY was co-dosed with each dosing solution at a nominal concentration of 200 μM.
# The cell culture medium was aspirated, and the cell monolayers were rinsed once with HBSSg_7.4. […] For receiver samples, aliquots (300 μL) were taken at pre-selected time points. […] For donor samples, aliquots (50 μL) were taken at pre-selected time points without replacement.
# [1] = system: CYPs in human liver microsomes (HLM); assay: CYP reaction phenotyping in HLM with chemical inhibitors (% remaining)
# [2] = target: T2, CYPs in human liver microsomes (HLM) (Homo sapiens, UniProt P05177); assay: as above; conditions: +NADPH +furafylline (CYP1A2), pre-incubated
# T2 sequence (P05177 1-516): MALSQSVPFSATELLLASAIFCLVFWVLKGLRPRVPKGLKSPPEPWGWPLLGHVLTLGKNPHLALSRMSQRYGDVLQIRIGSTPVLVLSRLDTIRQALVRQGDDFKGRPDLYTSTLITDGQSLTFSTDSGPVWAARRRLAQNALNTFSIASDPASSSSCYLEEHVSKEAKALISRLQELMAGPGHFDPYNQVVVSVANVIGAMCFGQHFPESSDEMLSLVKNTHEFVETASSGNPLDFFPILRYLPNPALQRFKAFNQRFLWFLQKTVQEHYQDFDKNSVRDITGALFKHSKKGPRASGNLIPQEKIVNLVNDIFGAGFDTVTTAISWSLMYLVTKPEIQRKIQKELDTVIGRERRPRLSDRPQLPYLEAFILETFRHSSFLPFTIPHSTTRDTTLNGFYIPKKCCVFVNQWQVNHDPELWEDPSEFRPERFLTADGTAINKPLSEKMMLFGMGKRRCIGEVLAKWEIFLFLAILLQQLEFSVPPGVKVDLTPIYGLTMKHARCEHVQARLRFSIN
# [3] = target: CYPs in human liver microsomes (HLM) (Homo sapiens, UniProt P33261); assay: as above; conditions: +NADPH +N3B (CYP2C19)
# CYPs in human liver microsomes (HLM) (Homo sapiens, UniProt P33261), sequence (P33261 whole entry): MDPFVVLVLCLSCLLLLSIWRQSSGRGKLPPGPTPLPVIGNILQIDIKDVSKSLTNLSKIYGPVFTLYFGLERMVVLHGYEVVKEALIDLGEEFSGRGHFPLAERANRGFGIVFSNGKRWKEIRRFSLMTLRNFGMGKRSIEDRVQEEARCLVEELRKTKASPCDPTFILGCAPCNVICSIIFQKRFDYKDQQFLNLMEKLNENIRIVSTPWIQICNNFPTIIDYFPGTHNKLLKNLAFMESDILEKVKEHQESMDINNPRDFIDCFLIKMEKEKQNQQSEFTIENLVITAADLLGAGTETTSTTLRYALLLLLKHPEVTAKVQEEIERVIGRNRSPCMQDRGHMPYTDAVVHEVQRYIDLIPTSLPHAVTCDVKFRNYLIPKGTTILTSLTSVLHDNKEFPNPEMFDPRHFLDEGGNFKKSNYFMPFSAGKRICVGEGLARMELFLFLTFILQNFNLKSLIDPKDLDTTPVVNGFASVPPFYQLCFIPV
# [4] = target: CYPs in human liver microsomes (HLM) (Homo sapiens, UniProt P11712); assay: as above; conditions: +NADPH +sulfaphenazole (CYP2C9)
# CYPs in human liver microsomes (HLM) (Homo sapiens, UniProt P11712), sequence (P11712 whole entry): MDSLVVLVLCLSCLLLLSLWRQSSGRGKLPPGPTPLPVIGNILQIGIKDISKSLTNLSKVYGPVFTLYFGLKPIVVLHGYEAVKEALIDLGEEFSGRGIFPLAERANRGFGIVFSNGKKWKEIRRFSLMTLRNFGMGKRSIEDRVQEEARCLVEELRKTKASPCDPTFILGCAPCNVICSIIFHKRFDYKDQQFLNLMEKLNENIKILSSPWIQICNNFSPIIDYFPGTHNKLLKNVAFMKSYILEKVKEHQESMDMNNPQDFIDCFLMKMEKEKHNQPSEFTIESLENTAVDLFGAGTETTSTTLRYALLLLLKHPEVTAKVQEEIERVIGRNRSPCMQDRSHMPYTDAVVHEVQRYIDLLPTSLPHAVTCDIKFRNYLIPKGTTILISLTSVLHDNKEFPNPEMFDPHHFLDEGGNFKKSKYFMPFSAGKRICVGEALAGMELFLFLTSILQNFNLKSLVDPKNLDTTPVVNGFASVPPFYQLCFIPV
# hrCYP2C9 = hrCYP2C9 (Homo sapiens, UniProt P11712); assay: CYP reaction phenotyping with hrCYP2C9 (% remaining); format: in vitro ADME; conditions: hrCYP2C9 20 pmol CYP/mL, 5 μM TA, PB and TUDCA co-incubated
# hrCYP2C9, sequence (P11712 whole entry): as above
# hrCYP2D6 = hrCYP2D6 (Homo sapiens, UniProt P10635); assay: CYP reaction phenotyping with hrCYP2D6 (% remaining); format: in vitro ADME; conditions: hrCYP2D6 20 pmol CYP/mL, 5 μM TA, PB and TUDCA co-incubated
# hrCYP2D6, sequence (P10635 whole entry): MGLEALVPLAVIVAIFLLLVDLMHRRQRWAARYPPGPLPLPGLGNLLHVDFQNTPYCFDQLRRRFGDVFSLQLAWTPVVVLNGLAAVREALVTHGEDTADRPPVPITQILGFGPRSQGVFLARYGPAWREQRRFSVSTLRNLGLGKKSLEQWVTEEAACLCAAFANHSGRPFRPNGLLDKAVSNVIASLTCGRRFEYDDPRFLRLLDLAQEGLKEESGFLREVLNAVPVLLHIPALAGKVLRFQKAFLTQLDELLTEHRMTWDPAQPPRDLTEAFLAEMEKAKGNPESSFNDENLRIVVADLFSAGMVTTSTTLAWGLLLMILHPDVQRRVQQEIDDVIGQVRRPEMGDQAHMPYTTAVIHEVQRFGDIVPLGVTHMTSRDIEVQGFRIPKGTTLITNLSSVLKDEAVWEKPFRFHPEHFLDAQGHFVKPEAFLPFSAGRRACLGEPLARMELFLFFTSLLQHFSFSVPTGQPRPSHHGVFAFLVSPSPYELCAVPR
# hrCYP2C19 = hrCYP2C19 (Homo sapiens, UniProt P33261); assay: CYP reaction phenotyping with hrCYP2C19 (% remaining); format: in vitro ADME; conditions: hrCYP2C19 20 pmol CYP/mL, 5 μM TA, PB and TUDCA co-incubated
# hrCYP2C19, sequence (P33261 whole entry): as the sequence (P33261 whole entry) above
# [5] = Rat drug-drug interaction study TDF + AMX0035: urine recovery; format: in vivo; conditions: Days 1 and 5
# Description: Total urine recovery data for Tenofovir, TDF, and PB was calculated for the 24 hour collection period on Days 1 and 5. […] The reported urine recovery data included amount recovered (ng) and percent recovered (%) for […]. Individual and mean Tenofovir, TDF, and PB urine recovery data were presented with SD, reported to three significant figures, and CV %, reported to one decimal place.
# [6] = 1.62 μM TUDCA (Solution 3), C2BBe1 cells, average
# [7] = 1.62 μM TUDCA (Solution 3), C2BBe1 cells, single replicates
# [8] = 16.2 μM TUDCA (Solution 2), C2BBe1 cells, average
# [9] = 16.2 μM TUDCA (Solution 2), C2BBe1 cells, single replicates
# [10] = […] TUDCA (Solution 1), C2BBe1 cells, average
# [11] = […] TUDCA (Solution 4), C2BBe1 cells, average
compound,measurement,setting,value
"O=C(O)Cc1ccccc1 [Phenylacetic acid, phenylacetic acid]",potency estimated from few doses,OAT1,< 750 µM
tauroursodeoxycholic acid [TUDCA],Papp AP-to-BL,P-gp and BCRP; [6],8.32 10^−6 cm/s
same,Papp BL-to-AP,P-gp and BCRP; [6],1.91 10^−6 cm/s
same,Papp AP-to-BL,P-gp and BCRP; [7],9.59 10^−6 cm/s and 7.25 10^−6 cm/s and 8.12 10^−6 cm/s
same,Papp BL-to-AP,P-gp and BCRP; [7],1.75 10^−6 cm/s and 1.84 10^−6 cm/s
same,Papp AP-to-BL,P-gp and BCRP; [8],2.00 10^−6 cm/s
same,Papp BL-to-AP,P-gp and BCRP; [8],0.610 10^−6 cm/s
same,Papp AP-to-BL,P-gp and BCRP; [9],1.19 10^−6 cm/s and 2.71 10^−6 cm/s and 2.08 10^−6 cm/s
same,Papp BL-to-AP,P-gp and BCRP; [9],0.553 10^−6 cm/s and 0.714 10^−6 cm/s and 0.561 10^−6 cm/s
same,Papp BL-to-AP,P-gp and BCRP; Caco-2,2.15 10^−6 cm/s
same,Papp AP-to-BL,P-gp and BCRP; [10],5.92 10^−6 cm/s
same,Papp BL-to-AP,P-gp and BCRP; [10],3.00 10^−6 cm/s
same,Papp AP-to-BL,P-gp and BCRP; [11],7.11 10^−6 cm/s
same,Papp BL-to-AP,P-gp and BCRP; [11],2.14 10^−6 cm/s
same,Metabolism by the major CYPs in HLM,[1],neither PB nor TUDCA is metabolized
same,% remaining of TA in HLM,"[1]; +NADPH +ketoconazole (CYP3A), 10 min",110%
same,% remaining of TA in HLM,"[1]; +NADPH +ketoconazole (CYP3A), 20 min",108%
same,% remaining of TA in HLM,"[1]; +NADPH +ketoconazole (CYP3A), 30 min",94.1%
same,% remaining of TA in HLM,"[1]; Maximum Metabolism-1: +NADPH −inhibitor, pre-incubated, 5 min",112%
same,% remaining of TA in HLM,"[1]; Maximum Metabolism-1: +NADPH −inhibitor, pre-incubated, 10 min",126%
same,% remaining of TA in HLM,"[1]; Maximum Metabolism-1: +NADPH −inhibitor, pre-incubated, 20 min",123%
same,% remaining of TA in HLM,"[1]; Maximum Metabolism-1: +NADPH −inhibitor, pre-incubated, 30 min",121%
same,% remaining of TA in HLM,"[1]; Maximum Metabolism-1: +NADPH −inhibitor, pre-incubated, 60 min",121%
same,% remaining of TA in HLM,"[1]; Maximum Metabolism-2: +NADPH −inhibitor, 5 min",103%
same,% remaining of TA in HLM,"[1]; Maximum Metabolism-2: +NADPH −inhibitor, 10 min",103%
same,% remaining of TA in HLM,"[1]; Maximum Metabolism-2: +NADPH −inhibitor, 20 min",103%
same,% remaining of TA in HLM,"[1]; Maximum Metabolism-2: +NADPH −inhibitor, 30 min",102%
same,% remaining of TA in HLM,"[1]; Maximum Metabolism-2: +NADPH −inhibitor, 60 min",96.9%
same,% remaining of TA in HLM,"[1]; Negative Control-1: −NADPH −inhibitor, pre-incubated, 5 min",117%
same,% remaining of TA in HLM,"[1]; Negative Control-1: −NADPH −inhibitor, pre-incubated, 10 min",129%
same,% remaining of TA in HLM,"[1]; Negative Control-1: −NADPH −inhibitor, pre-incubated, 20 min",119%
same,% remaining of TA in HLM,"[1]; Negative Control-1: −NADPH −inhibitor, pre-incubated, 30 min",130%
same,% remaining of TA in HLM,"[1]; Negative Control-1: −NADPH −inhibitor, pre-incubated, 60 min",132%
same,% remaining of TA in HLM,"[1]; Negative Control-2: −NADPH −inhibitor, 5 min",104%
same,% remaining of TA in HLM,"[1]; Negative Control-2: −NADPH −inhibitor, 10 min",104%
same,% remaining of TA in HLM,"[1]; Negative Control-2: −NADPH −inhibitor, 20 min",105%
same,% remaining of TA in HLM,"[1]; Negative Control-2: −NADPH −inhibitor, 30 min",106%
same,% remaining of TA in HLM,"[1]; Negative Control-2: −NADPH −inhibitor, 60 min",106%
same,% remaining of TA in HLM,[2]; 5 min,123%
same,% remaining of TA in HLM,[2]; 10 min,123%
same,% remaining of TA in HLM,[2]; 20 min,121%
same,% remaining of TA in HLM,[2]; 30 min,120%
same,% remaining of TA in HLM,[2]; 60 min,128%
same,% remaining of TA in HLM,[3]; 5 min,106%
same,% remaining of TA in HLM,[3]; 10 min,93.0%
same,% remaining of TA in HLM,[3]; 20 min,93.1%
same,% remaining of TA in HLM,[3]; 30 min,92.1%
same,% remaining of TA in HLM,[3]; 60 min,94.5%
same,% remaining of TA in HLM,[4]; 10 min,96.9%
same,% remaining of TA in HLM,[4]; 20 min,92.8%
same,% remaining of TA in HLM,[4]; 30 min,95.0%
same,% remaining of TA in HLM,[4]; 60 min,95.3%
same,% Remaining of TA,hrCYP2C9; 0 min,100%
same,% Remaining of TA,hrCYP2C9; 5 min,96.0%
same,% Remaining of TA,hrCYP2C9; 10 min,98.8%
same,% Remaining of TA,hrCYP2C9; 20 min,98.5%
same,% Remaining of TA,hrCYP2C9; 30 min,97.8%
same,% Remaining of TA,hrCYP2C9; 60 min,90.3%
same,% Remaining of TA,hrCYP2D6; 0 min,100%
same,% Remaining of TA,hrCYP2D6; 5 min,98.4%
same,% Remaining of TA,hrCYP2D6; 10 min,97.8%
same,% Remaining of TA,hrCYP2D6; 20 min,97.0%
same,% Remaining of TA,hrCYP2D6; 30 min,99.2%
same,% Remaining of TA,hrCYP2D6; 60 min,98.6%
same,% Remaining of TA,hrCYP2C19; 0 min,100%
same,% Remaining of TA,hrCYP2C19; 5 min,96.1%
same,% Remaining of TA,hrCYP2C19; 10 min,98.7%
same,% Remaining of TA,hrCYP2C19; 20 min,94.8%
same,% Remaining of TA,hrCYP2C19; 30 min,95.1%
same,Detection in urine,[5],not detected in any urine samples

# — patent US20240139211A1, “METHODS AND COMPOSITIONS FOR TREATING AMYOTROPHIC LATERAL SCLEROSIS” (Amylyx Pharmaceuticals, Inc., priority 2022, published 2024)
